Where two headings read alike, the source gives them in different places. Marks after values point to notes of the source that are not given here.
How the values were obtained:
[1] = tested on: Prevotella melaninogenica ATCC No. 25845; settings: for zone of inhibition of Prevotella melaninogenica: disc on BA plate, anaerobic 48 hours, mean of three assays; for overall antibacterial effect on P. melaninogenica: summary; for overall antibacterial effect on P. melaninogenica / zone of inhibition of P. melaninogenica, comparison between minerals: in words; for zone of inhibition of P. melaninogenica, comparison between minerals: at each of the concentrations (2.5-15%)
Method: (§1) The bacterial strains used for this study were obtained from the American Type Culture Collection (ATCC).
(§2) Dehydrated bacteria were resuspended in 5 mL of Brain Heart Infusion (BHI) broth and incubated anaerobically for 48 hours at 37° C. A total of 20 uL of each resuspended bacterial solution was plated on two 5% Trypticase Sheep Blood Agar (BA) plates and incubated anaerobically for 48 hours at 37° C. to ensure that a pure culture was maintained throughout the resuspension process. Six (6) vials of each bacterium were frozen down from the resuspended broth in a 20% glycerol solution (500 uL bacteria: 500 uL 40% glycerol).
(§3) One vial from the frozen stock of each bacterial strain was grown in 100 mL of Difco Anaerobe Broth MIC. P. melaninogenica was grown anaerobically for 24 hours at 37° C. and F. necrophorum was grown anaerobically for 48 hours at 37° C. After incubation, one hundred (100) 1 mL-vials of each bacterium were frozen down in a 10% glycerol solution.
(§4) Colony forming units/mL (CFU/mL) for each bacterium was determined by thawing 3 vials of each bacteria and making serial 1:10 dilutions out to 10e^−7. Separate serial dilutions were made for each of the three vials. A total of 100 uL of dilutions 10e^−3, 10e^−4, 10e^−5, 10e^−6, and 10e^−7 were plated in duplicate for each vial on BA plates and incubated under the appropriate culture conditions for each. The number of colonies growing on each dilution plate was counted and the CFU/mL for each dilution was determined. The average CFU/mL for each bacterium was calculated and used for all further assays.
(§5) The ZnCl arrived as a 60% solution and was diluted with distilled water to achieve concentrations of 2.5%, 5%, 10%, and 15% by weight. […] All mineral concentrations were filter-sterilized to ensure sterility.
(§6) To determine whether different concentrations of mineral salt solutions can inhibit the growth of an established culture, a separate blank paper disc was infused with each concentration of mineral salt solution and placed onto BA plates that had been swabbed with established cultures of each bacterium. Plates were incubated anaerobically for 48 hours and the zone (in mm) around each disc with no bacterial growth was measured with a caliper. The assay was repeated three times, and the mean zone of inhibition for each mineral concentration was calculated.
(§7) Data were analyzed using the Mixed Model procedure of SAS (PROC MIXED; SAS Stat Inc., Cary, N.C.) to test the effect of different concentrations for each mineral on P. melaninogenica and F. necrophorum. Least square means were calculated and separated using the PDIFF option of SAS. Contrast statements of SAS were used to determine linear and quadratic effects. The plate was used as the experimental unit. An alpha level of 0.05 was used to assess the significance in this experiment.

[2] = tested on: Fusobacterium necrophorum ATCC No. 25286; settings: for zone of inhibition of Fusobacterium necrophorum: disc on BA plate, anaerobic 48 hours, mean of three assays; for zone of inhibition of F. necrophorum, comparison between minerals: at each of the concentrations (2.5-15%), P<0.01; for zone of inhibition of F. necrophorum, comparison between minerals / overall antibacterial effect on F. necrophorum: in words; for overall antibacterial effect on F. necrophorum: summary
Method: as §1, §2, §3, §4, §5, §6, §7

[3] = 2.5% solution in distilled water
[4] = 10% solution in distilled water
[5] = 15% solution in distilled water

What does the source list for `O=S(=O)([O-])[O-].[Zn+2]` [ZnSO4, zinc sulfate]?
pH of mineral salt solution [3]: 5.06; pH of mineral salt solution (5% solution in distilled water): 4.75; pH of mineral salt solution [4]: 4.34; pH of mineral salt solution [5]: 4.16; zone of inhibition of Prevotella melaninogenica ([1]; 2.5% solution): 29.3^a mm; zone of inhibition of Prevotella melaninogenica ([1]; 5% solution): 33.5^a mm; zone of inhibition of Prevotella melaninogenica ([1]; 10% solution): 38.6^a mm; zone of inhibition of Prevotella melaninogenica ([1]; 15% solution): 42.9^a mm; overall antibacterial effect on P. melaninogenica [1]: only slightly less antibacterial activity; zone of inhibition of Fusobacterium necrophorum ([2]; 2.5% solution): 25.0^a mm; zone of inhibition of Fusobacterium necrophorum ([2]; 5% solution): 29.5^a mm; zone of inhibition of Fusobacterium necrophorum ([2]; 10% solution): 35.8^a mm; zone of inhibition of Fusobacterium necrophorum ([2]; 15% solution): 40.4^a mm; zone of inhibition of F. necrophorum, comparison between minerals [2]: smallest; overall antibacterial effect on F. necrophorum [2]: only slightly less antibacterial activity

With `[Cl-].[Cl-].[Zn+2]` [ZnCl2, zinc chloride] as the compound, how does the “pH of mineral salt solution” value [3] read?
The value was 6.02.

And the “pH of mineral salt solution” value (5% solution in distilled water)?
Its value is 5.78.

And the “pH of mineral salt solution” value [4]?
Its value is 5.43.

And the “pH of mineral salt solution” value [5]?
Its value is 5.21.

And the “pH relative to the other mineral salts” value (at all of the concentrations, in words)?
The value was “less acidic”.

And the “zone of inhibition of Prevotella melaninogenica” value ([1]; 2.5% solution)?
Its value is 38.9^b mm.

And the “zone of inhibition of Prevotella melaninogenica” value ([1]; 5% solution)?
The value was 42.5^b mm.

And the “zone of inhibition of Prevotella melaninogenica” value ([1]; 10% solution)?
The value was 46.6^b mm.

And the “zone of inhibition of Prevotella melaninogenica” value ([1]; 15% solution)?
Its value is 52.0^b mm.

And the “zone of inhibition of P. melaninogenica, comparison between minerals” value [1]?
Its value is “significantly greater zone of inhibition”.

What about the “overall antibacterial effect on P. melaninogenica” value [1] of the same compound?
The value was “greatest antibacterial effect”.

And the “zone of inhibition of Fusobacterium necrophorum” value ([2]; 2.5% solution)?
Its value is 27.6^b mm.

What about the “zone of inhibition of Fusobacterium necrophorum” value ([2]; 5% solution) of the same compound?
Its value is 33.9^b mm.

What about the “zone of inhibition of Fusobacterium necrophorum” value ([2]; 10% solution) of the same compound?
Its value is 41.3^b mm.

What about the “zone of inhibition of Fusobacterium necrophorum” value ([2]; 15% solution) of the same compound?
Its value is 44.2^b mm.

What about the “zone of inhibition of F. necrophorum, comparison between minerals” value [2] of the same compound?
Its value is “intermediate”.

And the “overall antibacterial effect on F. necrophorum” value [2]?
The value was “greatest antibacterial effect”.

For `O=S(=O)([O-])[O-].[Cu+2]` [CuSO4, copper sulfate], which “pH of mineral salt solution” value [3] is on record?
Its value is 4.34.

What about the “pH of mineral salt solution” value (5% solution in distilled water) of the same compound?
Its value is 4.13.

What about the “pH of mineral salt solution” value [4] of the same compound?
Its value is 3.94.

What about the “pH of mineral salt solution” value [5] of the same compound?
The value was 3.81.

And the “zone of inhibition of Prevotella melaninogenica” value ([1]; 2.5% solution)?
The value was 31.0^a mm.

What about the “zone of inhibition of Prevotella melaninogenica” value ([1]; 5% solution) of the same compound?
The value was 31.7^a mm.

What about the “zone of inhibition of Prevotella melaninogenica” value ([1]; 10% solution) of the same compound?
Its value is 38.2^a mm.

And the “zone of inhibition of Prevotella melaninogenica” value ([1]; 15% solution)?
Its value is 40.7^a mm.

And the “zone of inhibition of P. melaninogenica, comparison between minerals” value [1]?
Its value is “not significantly different”.

What about the “overall antibacterial effect on P. melaninogenica” value [1] of the same compound?
Its value is “greatest antibacterial effect”.

And the “zone of inhibition of Fusobacterium necrophorum” value ([2]; 2.5% solution)?
The value was 36.3^c mm.

And the “zone of inhibition of Fusobacterium necrophorum” value ([2]; 5% solution)?
Its value is 40.7^c mm.

What about the “zone of inhibition of Fusobacterium necrophorum” value ([2]; 10% solution) of the same compound?
The value was 46.7^c mm.

What about the “zone of inhibition of Fusobacterium necrophorum” value ([2]; 15% solution) of the same compound?
Its value is 52.2^c mm.

What about the “zone of inhibition of F. necrophorum, comparison between minerals” value [2] of the same compound?
Its value is “greatest”.

And the “overall antibacterial effect on F. necrophorum” value [2]?
Its value is “greatest antibacterial effect”.

Source: patent publication US7670629B2, “Method of treating bacterial hoof infections of sheep and cattle” (priority 2005, dated 2010)
